Columns and labels:
[1] = Aqueous solubility of the compound in simulated intestinal fluid at pH 4.5; type: ADME; conditions: simulated gi fluid
[2] = Aqueous solubility of the compound in simulated gastric fluid at pH 1.5; type: ADME; conditions: simulated gi fluid
[3] = Aqueous solubility of the compound in hepes buffer at pH 7.4; type: physicochemical
[4] = Aqueous solubility of the compound in simulated intestinal fluid at pH 6.8; type: ADME; conditions: simulated gi fluid

Row | Compound | solubility [1] | solubility [2] | solubility [3] | solubility [4]
1 | N#Cc1cnc2[nH]cc(C(=O)c3c(F)ccc(NS(=O)(=O)c4ccccc4F)c3F)c2c1 | Soluble | Soluble | Soluble | Soluble
2 | N#Cc1ccnc2[nH]cc(C(=O)c3c(F)ccc(NS(=O)(=O)c4ccccc4F)c3F)c12 | Soluble | Soluble | Soluble | Soluble
3 | Cc1cnc2[nH]cc(C(=O)c3c(F)ccc(NS(=O)(=O)c4cc(F)ccc4F)c3F)c2c1 | Insoluble | Soluble | Soluble | Soluble
4 | CCCS(=O)(=O)Nc1ccc(F)c(C(=O)c2c[nH]c3ncc(-c4ccc(OCCCN(C)C)nc4)cc23)c1F | Soluble | Soluble | Insoluble | Insoluble
5 | N#Cc1cnc2[nH]cc(C(=O)c3c(F)ccc(NS(=O)(=O)c4ccccc4)c3F)c2c1 | Insoluble | Insoluble | Soluble | Soluble
6 | CCCS(=O)(=O)Nc1ccc(F)c(C(=O)c2c[nH]c3ncc(-c4ccc(OC)nc4OC)cc23)c1F | Insoluble | Insoluble | Insoluble | Insoluble
7 | CCCS(=O)(=O)Nc1ccc(F)c(C(=O)c2c[nH]c3ncc(-c4ccc(OCCCN5CCOCC5)nc4)cc23)c1F | Soluble | Soluble | Insoluble | Insoluble
8 | N#Cc1cnc2[nH]cc(C(=O)c3cccc(NS(=O)(=O)c4ccccc4)c3F)c2c1 | Insoluble | Insoluble | Soluble | Soluble
9 | CCCS(=O)(=O)Nc1ccc(F)c(C(=O)c2c[nH]c3ncc(-c4ccc(OCCCN5CCCC5)nc4)cc23)c1F | Soluble | Insoluble | Insoluble | Insoluble
10 | CCCS(=O)(=O)Nc1cccc(C(=O)c2c[nH]c3ncc(-c4cnc(N(C)C)nc4)cc23)c1F | Insoluble | Insoluble | Insoluble | Insoluble
11 | CCCS(=O)(=O)Nc1ccc(F)c(C(=O)c2c[nH]c3ncc(-c4cn[nH]c4)cc23)c1F | Insoluble | Insoluble | Insoluble | Insoluble
12 | Cc1cnc2[nH]cc(C(=O)c3c(F)ccc(NS(=O)(=O)c4c(F)cccc4F)c3F)c2c1 | Insoluble | Soluble | Soluble | Soluble
13 | C#Cc1cnc2[nH]cc(C(=O)c3c(F)ccc(NS(=O)(=O)CCC)c3F)c2c1 | Insoluble | Insoluble | Insoluble | Insoluble
14 | CCCS(=O)(=O)Nc1ccc(F)c(C(=O)c2c[nH]c3ncc(-c4cnn(Cc5ccccc5)c4)cc23)c1F | Insoluble | Insoluble | Insoluble | Insoluble
15 | COc1ccnc2[nH]cc(C(=O)c3c(F)ccc(NS(=O)(=O)c4cccc(F)c4)c3F)c12 | Soluble | Soluble | Soluble | Soluble
16 | Cc1cnc2[nH]cc(C(=O)c3c(F)ccc(NS(=O)(=O)c4ccccc4F)c3F)c2c1 | Soluble | Insoluble | Soluble | Soluble
17 | N#Cc1cnc2[nH]cc(C(=O)c3cccc(NS(=O)(=O)c4ccccc4F)c3F)c2c1 | Soluble | Soluble | Soluble | Soluble
18 | CCCS(=O)(=O)Nc1ccc(F)c(C(=O)c2c[nH]c3ncc(-c4ccc(OCCN5CCOCC5)nc4)cc23)c1F | Soluble | Soluble | Insoluble | Insoluble
19 | O=C(c1c(F)ccc(NS(=O)(=O)c2c(F)cccc2F)c1F)c1c[nH]c2ncc(Cl)cc12 | Soluble | Soluble | Soluble | Soluble
20 | COc1ccnc2[nH]cc(C(=O)c3c(F)ccc(NS(=O)(=O)c4cc(F)ccc4F)c3F)c12 | Soluble | Soluble | Soluble | Soluble
21 | COc1cnc2[nH]cc(C(=O)c3c(F)ccc(NS(=O)(=O)c4cc(F)ccc4F)c3F)c2c1 | Insoluble | Insoluble | Soluble | Soluble
22 | N#Cc1cnc2[nH]cc(C(=O)c3cccc(NS(=O)(=O)c4cccnc4)c3F)c2c1 | Soluble | Soluble | Soluble | Soluble

Row | Compound | solubility [1] | solubility [2] | solubility [3] | solubility [4]
23 | O=C(c1c(F)ccc(NS(=O)(=O)c2ccccc2F)c1F)c1c[nH]c2nccc(Cl)c12 | Soluble | Soluble | Soluble | Soluble
24 | CCCS(=O)(=O)Nc1ccc(F)c(C(=O)c2c[nH]c3ncc(-c4ccc(C(=O)NC)nc4)cc23)c1F | Insoluble | Insoluble | Insoluble | Insoluble
25 | COc1ncc(-c2cnc3[nH]cc(C(=O)c4c(F)ccc(NS(=O)(=O)c5ccccc5F)c4F)c3c2)cn1 | Insoluble | Insoluble | Insoluble | Insoluble
26 | CCCS(=O)(=O)Nc1ccc(F)c(C(=O)c2c[nH]c3ncc(-c4cnc(N(C)C)nc4)cc23)c1F | Insoluble | Soluble | Insoluble | Insoluble
27 | CCCS(=O)(=O)Nc1ccc(F)c(C(=O)c2c[nH]c3ncc(-c4cnn(CCN5CCOCC5)c4)cc23)c1F | Soluble | Soluble | Insoluble | Insoluble
28 | CCCS(=O)(=O)Nc1ccc(F)c(C(=O)c2c[nH]c3ncc(-c4ccc(OCCN5CCCC5)nc4)cc23)c1F | Soluble | Insoluble | Soluble | Insoluble
29 | N#Cc1cnc2[nH]cc(C(=O)c3cccc(NS(=O)(=O)c4cccc(F)c4)c3F)c2c1 | Insoluble | Insoluble | Soluble | Soluble
30 | CCCS(=O)(=O)Nc1ccc(F)c(C(=O)c2c[nH]c3ncc(-c4ccc(S(=O)(=O)N(C)C)cc4)cc23)c1F | Insoluble | Insoluble | Insoluble | Insoluble
31 | O=C(c1c(F)ccc(NS(=O)(=O)c2cc(F)ccc2F)c1F)c1c[nH]c2nccc(Cl)c12 | Soluble | Insoluble | Soluble | Soluble
32 | COc1ncc(-c2cnc3[nH]cc(C(=O)c4c(F)ccc(NS(=O)(=O)c5cc(F)ccc5F)c4F)c3c2)cn1 | Insoluble | Insoluble | Insoluble | Insoluble
33 | CCCS(=O)(=O)Nc1ccc(F)c(C(=O)c2c[nH]c3ncc(-c4ccc(S(N)(=O)=O)cc4)cc23)c1F | Insoluble | Insoluble | Insoluble | Insoluble
34 | Cc1cnc2[nH]cc(C(=O)c3c(F)ccc(NS(=O)(=O)c4cccc(F)c4)c3F)c2c1 | Insoluble | Soluble | Soluble | Soluble
35 | COc1ncc(-c2cnc3[nH]cc(C(=O)c4c(F)ccc(NS(=O)(=O)c5c(F)cccc5F)c4F)c3c2)cn1 | Insoluble | Insoluble | Soluble | Insoluble
36 | CCCS(=O)(=O)Nc1ccc(F)c(C(=O)c2c[nH]c3ncc(-c4cnc(N5CCOCC5)nc4)cc23)c1F | Insoluble | Soluble | Insoluble | Insoluble
37 | Cc1cnc2[nH]cc(C(=O)c3c(F)ccc(NS(=O)(=O)c4cccnc4)c3F)c2c1 | Soluble | Soluble | Soluble | Soluble
38 | CCCS(=O)(=O)Nc1ccc(F)c(C(=O)c2c[nH]c3ncc(-c4ccc(C)nc4)cc23)c1F | Soluble | Soluble | Insoluble | Insoluble
39 | CCCS(=O)(=O)Nc1ccc(F)c(C(=O)c2c[nH]c3ncc(-c4ccc(C(=O)NC5CC5)nc4)cc23)c1F | Insoluble | Insoluble | Insoluble | Insoluble
40 | CCCS(=O)(=O)Nc1ccc(F)c(C(=O)c2c[nH]c3ncc(-c4cnc(C)nc4)cc23)c1F | Soluble | Soluble | Soluble | Soluble
41 | CCCS(=O)(=O)Nc1ccc(F)c(C(=O)c2c[nH]c3ncc(-c4cnc(SC)nc4)cc23)c1F | Insoluble | Insoluble | Insoluble | Insoluble
42 | O=C(c1c(F)ccc(NS(=O)(=O)c2cc(F)ccc2F)c1F)c1c[nH]c2ncc(Cl)cc12 | Insoluble | Insoluble | Soluble | Soluble
43 | CCCS(=O)(=O)Nc1ccc(F)c(C(=O)c2c[nH]c3ncc(-c4ccc(S(C)(=O)=O)cc4)cc23)c1F | Insoluble | Insoluble | Insoluble | Insoluble
44 | CCCS(=O)(=O)Nc1ccc(F)c(C(=O)c2c[nH]c3ncc(C#CCOC)cc23)c1F | Soluble | Insoluble | Soluble | Insoluble

Source: ChEMBL document CHEMBL3879902, “Compounds and methods for kinase modulation, and indications thereof” (2012)
